{"source": "patent US20240383913A1", "about": "“THIOPHENE RING COMPOUND, PREPARATION METHOD THEREFOR AND APPLICATION THEREOF” (CENTER FOR EXCELLENCE IN MOLECULAR CELL SCIENCE, CHINESE …, priority 2021, published 2024)", "key": {"[1]": {"molecular_target": "5-HT2A receptor (Homo sapiens (Human), UniProt P28223)", "sequence (P28223 whole entry)": "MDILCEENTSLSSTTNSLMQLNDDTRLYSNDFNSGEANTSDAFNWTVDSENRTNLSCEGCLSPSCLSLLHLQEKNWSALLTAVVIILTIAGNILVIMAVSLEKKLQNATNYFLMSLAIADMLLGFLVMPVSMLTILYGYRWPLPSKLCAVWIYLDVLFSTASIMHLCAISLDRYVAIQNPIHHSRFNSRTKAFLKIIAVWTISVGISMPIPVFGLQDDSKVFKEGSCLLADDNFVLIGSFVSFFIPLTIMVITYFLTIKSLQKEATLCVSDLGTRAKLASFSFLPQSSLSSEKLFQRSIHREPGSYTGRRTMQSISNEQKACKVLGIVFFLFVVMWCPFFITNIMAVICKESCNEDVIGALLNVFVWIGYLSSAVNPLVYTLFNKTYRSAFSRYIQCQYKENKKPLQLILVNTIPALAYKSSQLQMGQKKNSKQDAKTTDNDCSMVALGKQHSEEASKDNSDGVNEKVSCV", "assay": "Affinity for 5-HT2A receptors, radioligand competition with [3H]-ketanserin", "type": "binding", "settings": "293T membrane transiently expressing 5-HT2A", "description": "The affinity of the compounds of the present disclosure for the 5-HT2A receptors was determined by the method of radioligand competition experiment. In the first step, a cell membrane component containing specific 5-HT2A receptor was prepared. A 10 cm dish was used for transfection with 10 ng of the 5-HT2A receptor and 40 μL of PEI. After 48 hours, the 10 cm dish was taken out from the cell incubator and the cultured cells had expressed the 5-HT2A receptor. A vacuum pump was used to suck off the culture medium, 3 mL of lysis buffer was added to each culture dish, and the cells were placed in a 4° C. cold room for 10 minutes. After the cells were detached, the cells were transferred to a 15 mL centrifuge tube and centrifuged at 1500 rpm for 5 minutes at 4° C., and the supernatant was discarded. The cell pellet was transferred to a tissue homogenizer, and 3 mL of lysis buffer was added and fully ground until the cells were broken. Then, cell suspension was equally aliquoted into several EP tubes, centrifuged at 12000 rpm for 5 minutes at 4° C., and the supernatant was discarded. The precipitate was the cell membrane component containing the 5-HT2A receptor. […] First, a standard binding buffer was added to the cell membrane component containing the 5-HT2A receptor, and the cell membrane was disrupted and resuspended with an electric tissue homogenizer. 30 μL of membrane protein suspension was added to each well of a 96-well plate. Then, 30 μL of different drugs were added to the 96-well plate sequentially from bottom to top to ensure that the final drug concentrations were 10^−5 M, 10^−6 M, 10^−7 M, 10^−8 M, 10^−9 M, and 0 M, with two replicates per treatment. Next, 30 μL of [3H]-ketanserin was added to each well of the 96-well plate. The plate was incubated for 2 hours at room temperature in the dark. Detection was conducted. The machine readout value reflected the amount of [3H]-ketanserin bound on the membrane, and after further data processing, the affinity Ki values of different compounds for the 5-HT2A receptor were obtained."}, "[2]": {"test_system": "restraint-induced depression-like behaviors", "assay": "Forced swimming test after 5-hour restraint", "type": "in vivo, C57B6 male mice", "method": "The experimental animals were C57B6 male mice, n=8 in each group. 5-hour restraint were used to develop depression-like behavioral representations of the mice, then the effects of the compounds on their “depression-like” behaviors were measured according to behavioral performance in tail suspension test and forced swimming test. The specific experimental procedures were as follows: Firstly, the mice were restrained using a mouse fixator for tail vein injection. During the restraint process, all movement abilities of the mice were restricted under the condition of introducing minimal pain to the mice. Compounds were administered intraperitoneally twice, before and after restraint, respectively. After compound administration, the mice returned to the cage to recover for 30 minutes. […]\nForced swimming test: the mice were placed in a 5 L glass beaker filled with water, with the water level at 15 cm height, and the mice were forced to swim continuously in the beaker for 6 minutes. […] The duration of the immobility behavior was recorded intermittently for the remaining 4 minutes, and the immobility behavior of the mice was defined as: the mice float passively on the surface of the water without movement, with only small local movements required to maintain afloat. The duration of this immobility was measured to assess the level of behavioral despair in the mice. […]"}, "[3]": {"molecular_target": "T1, 5-HT1A receptor (Homo sapiens (Human), UniProt P08908)", "T1 sequence (P08908 whole entry)": "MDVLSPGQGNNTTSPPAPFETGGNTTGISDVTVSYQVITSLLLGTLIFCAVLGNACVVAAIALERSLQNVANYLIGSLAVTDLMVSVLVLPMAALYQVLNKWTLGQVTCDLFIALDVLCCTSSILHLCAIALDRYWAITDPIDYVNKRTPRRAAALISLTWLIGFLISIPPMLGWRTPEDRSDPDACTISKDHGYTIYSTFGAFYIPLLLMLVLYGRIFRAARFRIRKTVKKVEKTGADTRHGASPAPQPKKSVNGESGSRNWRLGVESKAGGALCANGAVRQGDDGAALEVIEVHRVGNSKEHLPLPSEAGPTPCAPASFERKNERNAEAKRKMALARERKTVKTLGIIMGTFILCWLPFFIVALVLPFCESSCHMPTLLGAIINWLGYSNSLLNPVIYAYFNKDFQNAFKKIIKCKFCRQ", "assay": "Affinity for 5-HT1A receptors, radioligand competition with [3H]-LSD;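 note: membranes from cells transiently transfected with 5-HT1A receptor, bound [3H]-LSD displaced by compound at 10^-9 to 10^-5 M, 2 h incubation at room temperature in the dark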", "type": "binding", "settings": "293T membrane transiently expressing 5-HT1A; [3H]-LSD; read-out: 5-HT1A affinity Ki", "description": "(§1) The affinity of the compounds of the present disclosure for the 5-HTIA receptors was determined by the method of radioligand competition experiment. In the first step, a cell membrane component containing specific 5-HTIA receptor was prepared. A 10 cm culture dish was used for transfection with 10 ng of the 5-HTIA receptor and 40 μL of PEI. After 48 hours, the 10 cm culture dish was taken out from the cell incubator and the cultured cells had expressed the 5-HTIA receptor. A vacuum pump was used to suck off the culture medium, 3 mL of lysis buffer was added to each culture dish, and the cells were placed in a 4° C. cold room for 10 minutes. After the cells were detached, the cells were transferred to a 15 mL centrifuge tube and centrifuged at 1500 rpm for 5 minutes at 4° C., and the supernatant was discarded. The cell pellet was transferred to a tissue homogenizer, and 3 mL of lysis buffer was added and fully ground until the cells were broken. Then, cell suspension was equally aliquoted into several EP tubes, centrifuged at 12000 rpm for 5 minutes at 4° C., and the supernatant was discarded. The precipitate was the cell membrane component containing the 5-HT1A receptor. […] First, a standard binding buffer was added to the cell membrane component containing the 5-HT1A receptor, and the cell membrane was disrupted and resuspended with an electric tissue homogenizer. 30 μL of membrane protein suspension was added to each well of a 96-well plate. Then, 30 μL of different drugs were added to the 96-well plate sequentially from bottom to top to ensure that the final drug concentrations were 10^−5 M, 10^−6 M, 10^−7 M, 10^−8 M, 10^−9 M, and 0 M, with two replicates per treatment. Next, 30 μL of [3H]-LSD was added to each well of the 96-well plate. The plate was incubated for 2 hours at room temperature in the dark. Detection was conducted. The machine readout value reflected the amount of [3H]-LSD bound on the membrane, and after further data processing, the affinity Ki values of different compounds for the 5-HTIA receptor were obtained. To examine the downstream G protein signaling pathway mediated by 5-HTIA receptors, on the first day, a 6 cm culture dish was used for transfection with 1 μg of 5-HTIA receptors, 1 μg of Gαi1 containing C-terminal seaweed luciferase (Gαi1-Rluc), 1 μg of Gβ3, 1 μg of Gγ9 containing C-terminal green fluorescent protein (Gγ9-GFP), and 16 μL of PEI. The next day, the confluent cells of a 6 cm culture dish were digested and reseeded into a 96-well plate with 100 μL of culture medium was added to each well. On the third day, the drugs were added for test. The 96-well plate was taken out from the cell incubator to decant the culture medium, 40 μL of the substrate coelenterazine 400a (final concentration of 5 μM) was added to each well, and then 20 μL of different drugs were added sequentially from left to right to ensure that the final concentration of the drug decreased gradually from bottom to top, with two replicates per treatment. Finally, the prepared samples were loaded on machine for test. The machine readout value reflected the dissociation of G protein trimer, and thereby indicated the degree of activation of the G protein signaling pathway downstream of the 5-HTIA receptors."}, "[4]": {"molecular_target": "T1, 5-HT1A receptor", "assay": "5-HT1A receptor Gαi1 BRET (G protein trimer dissociation);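 note: cells transiently co-expressing 5-HT1A receptor, luciferase-tagged Gαi1, Gβ3 and GFP-tagged Gγ9, seeded in 96-well plates for BRET measurement of G protein signaling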", "type": "cell-based", "settings": "5-HT1A receptor, G protein pathway", "description": "as §1"}}}
{"smiles": "CN(C)C(=O)N[C@H]1CC[C@H](CCN2CCN3c4cccc5scc(c45)CC3C2)CC1", "note": "(single isomer, unassigned; (-)) [(−)-I-27]", "values": [{"measurement": "Ki", "setting": "[1]", "value": 2290, "unit": "nM"}, {"measurement": "Immobility time (seconds), forced swimming test", "setting": "[2]; (−)-I-27 0.025 mg/kg i.p.", "value": "91.83 ± 6.80", "unit": "s"}, {"measurement": "Immobility time (seconds), forced swimming test", "setting": "[2]; (−)-I-27 0.1 mg/kg i.p.", "value": "56.89 ± 4.80", "unit": "s"}, {"measurement": "Ki", "setting": "[3]", "value": 80, "unit": "nM"}, {"measurement": "Gαi1 BRET (Emax %)", "setting": "[4]", "value": "(76%)"}, {"measurement": "EC50", "setting": "[4]; read-out: Gαi1 BRET EC50", "value": 166, "unit": "nM"}]}
